Assay results as given in patent US7718161B2, “Method for treating a motoneuron disorder” (UCB Pharma GmbH, priority 2004, dated 2010).
“Also recorded” adds a separate entry of the source.

Legend:
SOD mutant mice [1] = experiment: Survival in the SOD mutant mouse model of ALS; assay type: in vivo
Method: The present study investigates the effects of SPM 927 to protect or to reduce impairments observed in this ALS model. For this purpose behavioral measurements and EMGs are performed in SOD-G93A mice overexpressing mutant human Cu, Zn SOD.
(§1) The transgenic mouse strain used for this study is G1H (Gurney et al., 1994). The animals begin to show signs of posterior limb weakness at around 3 months of age and die at 4 months.
(§2) 40 mice are included in the study and divided into 4 groups of 10 mice. • a SOD vehicle group • a SOD treated group (SPM 927 3 mg/kg) • a SOD treated group (SPM 927 10 mg/kg) • a SOD treated group (SPM 927 30 mg/kg)
(§3) Animals were weighed every day. The general status of the mice was checked daily, especially for the presence of tremor, for skin aspect and for muscle wasting. EMG testing was performed once every week, starting on D70 of age until the death of the animals. The survival rate and the interval from symptom onset until death were recorded.
The animals were treated from day 60 (before the beginning of the clinical signs) until the animal's death. The treatment was administered twice daily intraperitoneally.
A global analysis of the data was made using one factor or repeated measures analysis of variance (ANOVA). […]

SOD mutant mice [2] = experiment: Rotarod test in SOD mutant mice; assay type: in vivo, mouse; conditions: twice daily intraperitoneally from day 60
Method: as §1, §2
(§4) • Rotarod test: this test evaluates the ability of the animal to stay on a rotating dowel allowing evaluation of motor coordination and proprioceptive sensitivity. The apparatus is a 3 cm diameter automated rod which turns at 12 rounds per minute (Bioseb, Paris, France). The rotarod test measures how long the mouse can maintain itself on the axle without falling. The test is stopped after an arbitrary limit of 120 s. Should the animal fall down before 120 s, the performance is recorded and two additional trials are performed. The mean time of 3 trials is calculated. […] The number of times the mice put their paws through the grid is counted and serves as a measure for motor coordination. • Hanging test: this test evaluates the ability of the animal to hang on a wire. […] The time needed by the animal to catch the string with its hindpaws is recorded (60 s maximum) during three consecutive trials. […]

SOD mutant mice [3] = experiment: Grid test in SOD mutant mice; assay type: in vivo, mouse
Method: as §1, §2, §4

SOD mutant mice [4] = experiment: Hanging test in SOD mutant mice; assay type: in vivo, mouse; conditions: twice daily intraperitoneally from day 60
Method: as §1, §2, §4

SOD mutant mice [5] = experiment: Electromyographic recordings (compound muscle action potential) in SOD mutant mice; assay type: in vivo, mouse
Method: as §1, §2, §3
Electromyographic recordings were performed using a Neuromatic 2000M electromyography apparatus. During EMG the mice are anesthetized (60 mg kg-1, Imalgène®). The measured parameters are the amplitude and the latency of the compound muscle action potential (CMAP). CMAP is measured in gastrocnemius muscle after stimulation of the sciatic nerve. A reference electrode is inserted near the Achilles tendon and an active needle placed at the base of the tail. A ground needle is inserted on the lower back of the mouse. […] The amplitude (mV) and the latency of the response (ms) are measured. […]

[6] = twice daily intraperitoneally from day 60, dose not given

In the case of “(R)-2-acetamide-N-benzyl-3-methoxypropionamide [SPM 927]”, the “life-span of SOD mutant mice” value (SOD mutant mice [1]; FIG. 1, 3, 10, 30 mg/kg twice daily intraperitoneally from day 60 until death) was “dose dependently prolongs life-span”, the “survival time after onset of symptoms” value (SOD mutant mice [1]; chronic treatment twice daily intraperitoneally from day 60, G1H SOD-G93A mice) was “prolongs survival time after symptom onset; also recorded: prolongs survival time after onset of symptoms” and the “motor symptoms in the rotarod test” value (SOD mutant mice [2]) was “alleviates motor symptoms”. The “motor impairment (grid performance)” value (SOD mutant mice [3]; FIG. 2, 30 mg/kg, twice daily intraperitoneally) was “attenuates motor impairment”, the “motor symptoms in the grid test” value (SOD mutant mice [3]; [6]) was “alleviates motor symptoms” and the “motor symptoms in the hanging test” value (SOD mutant mice [4]) was “alleviates motor symptoms”. The “motor impairment (latency of compound muscle action potential)” value (SOD mutant mice [5]; FIG. 3, 10 mg/kg, twice daily intraperitoneally) was “attenuates motor impairment” and the EMG abnormalities (SOD mutant mice [5]; [6]) was “attenuates motor symptoms including abnormalities in electrophysiological recordings (EMG)”.
